Laboratory results published in the NIST ThermoML archive (doi:10.1016/j.tca.2011.06.020).
± gives the expanded uncertainty stated by the source.

Key:
[1] = excess molar enthalpy (molar enthalpy of mixing); xn = mol fraction of the nth substance listed; conditions: 308.15 K, 101 kPa, Liquid, Drop calorimetry
[2] = xn = mol fraction of the nth substance listed; conditions: 101 kPa, Liquid; for speed of sound: Sing-around technique in a fixed-path interferometer; for mass density: Vibrating tube method

CNC=O [N-methylformamide] + C1CCOCC1
[1]
Conditions | excess molar enthalpy [kJ/mol]
x2 = 0.0662 | 0.0341 ± 0.0012
x2 = 0.1805 | 0.122 ± 0.0029
x2 = 0.2254 | 0.156 ± 0.0036
x2 = 0.2892 | 0.206 ± 0.0047
x2 = 0.3252 | 0.236 ± 0.0053
x2 = 0.3743 | 0.268 ± 0.006
x2 = 0.4016 | 0.279 ± 0.0062
x2 = 0.4724 | 0.314 ± 0.0069
x2 = 0.5114 | 0.323 ± 0.0071
x2 = 0.5562 | 0.327 ± 0.0072
x2 = 0.5923 | 0.325 ± 0.0072
x2 = 0.6242 | 0.313 ± 0.0069
x2 = 0.6675 | 0.304 ± 0.0067
x2 = 0.7153 | 0.276 ± 0.0061
x2 = 0.7576 | 0.252 ± 0.0056
x2 = 0.7901 | 0.223 ± 0.005
x2 = 0.8152 | 0.202 ± 0.0046
x2 = 0.8676 | 0.154 ± 0.0036

[2]
Conditions | mass density, 298.15 K [kg/m3] | mass density, 303.15 K [kg/m3] | mass density, 308.15 K [kg/m3] | speed of sound, 298.15 K [m/s] | speed of sound, 303.15 K [m/s] | speed of sound, 308.15 K [m/s]
x2 = 0 | 999.004 ± 0.84 | 994.653 ± 0.83 | 990.302 ± 0.83 | 1432.9 ± 2.9 | 1417.7 ± 2.9 | 1402.5 ± 2.9
x2 = 0.0822 | 984.359 ± 0.82 | 979.949 ± 0.81 | 975.601 ± 0.81 | 1411.8 ± 2.9 | 1396.4 ± 2.9 | 1380.7 ± 2.9
x2 = 0.1587 | 971.886 ± 0.81 | 967.407 ± 0.8 | 963.009 ± 0.79 | 1394 ± 2.9 | 1377.9 ± 2.9 | 1361.7 ± 2.9
x2 = 0.2344 | 960.487 ± 0.79 | 955.945 ± 0.79 | 951.454 ± 0.78 | 1377.9 ± 2.9 | 1361 ± 2.9 | 1344.4 ± 2.9
x2 = 0.2633 | 956.359 ± 0.79 | 951.788 ± 0.78 | 947.263 ± 0.78 | 1372.1 ± 2.9 | 1355 ± 2.9 | 1338.1 ± 2.9
x2 = 0.3005 | 951.208 ± 0.78 | 946.607 ± 0.78 | 942.041 ± 0.77 | 1365 ± 2.9 | 1347.4 ± 2.9 | 1330.3 ± 2.9
x2 = 0.3572 | 943.711 ± 0.77 | 939.057 ± 0.77 | 934.409 ± 0.76 | 1354.5 ± 2.9 | 1336.5 ± 2.9 | 1319.1 ± 2.9
x2 = 0.3814 | 940.623 ± 0.77 | 935.944 ± 0.76 | 931.277 ± 0.76 | 1350.3 ± 2.9 | 1332 ± 2.9 | 1314.5 ± 2.9
x2 = 0.4163 | 936.288 ± 0.76 | 931.584 ± 0.76 | 926.867 ± 0.75 | 1344.4 ± 2.9 | 1325.8 ± 2.9 | 1308 ± 2.9
x2 = 0.4334 | 934.212 ± 0.76 | 929.494 ± 0.76 | 924.763 ± 0.75 | 1341.6 ± 2.9 | 1322.9 ± 2.9 | 1305 ± 2.9
x2 = 0.4851 | 928.124 ± 0.75 | 923.354 ± 0.75 | 918.566 ± 0.74 | 1333.4 ± 2.9 | 1314.3 ± 2.9 | 1296.1 ± 2.9
x2 = 0.5122 | 925.036 ± 0.75 | 920.247 ± 0.75 | 915.428 ± 0.74 | 1329.3 ± 2.9 | 1310 ± 2.9 | 1291.6 ± 2.9
x2 = 0.5693 | 918.752 ± 0.74 | 913.91 ± 0.74 | 909.049 ± 0.73 | 1321 ± 2.9 | 1301.3 ± 2.9 | 1282.6 ± 2.9
x2 = 0.6064 | 914.817 ± 0.74 | 909.949 ± 0.73 | 905.053 ± 0.73 | 1315.9 ± 2.9 | 1296 ± 2.9 | 1277 ± 2.9
x2 = 0.6571 | 909.625 ± 0.73 | 904.722 ± 0.73 | 899.79 ± 0.72 | 1309.1 ± 2.9 | 1289 ± 2.9 | 1269.6 ± 2.9
x2 = 0.6988 | 905.507 ± 0.73 | 900.569 ± 0.72 | 895.605 ± 0.72 | 1303.8 ± 2.9 | 1283.5 ± 2.9 | 1263.7 ± 2.9
x2 = 0.7315 | 902.361 ± 0.73 | 897.401 ± 0.72 | 892.421 ± 0.72 | 1299.8 ± 2.9 | 1279.3 ± 2.9 | 1259.3 ± 2.9
x2 = 0.7743 | 898.361 ± 0.72 | 893.366 ± 0.72 | 888.365 ± 0.71 | 1294.7 ± 2.9 | 1273.9 ± 2.9 | 1253.5 ± 2.9
x2 = 0.8468 | 891.856 ± 0.71 | 886.811 ± 0.71 | 881.763 ± 0.7 | 1286.4 ± 2.9 | 1265.1 ± 2.9 | 1244.1 ± 2.9
